{
  "source": "patent US20060275209A1",
  "about": "“Methods of [11c]-radiolabelling phenothiazine and phenothiazine-like compounds” (priority 2003, published 2006)",
  "origin": "cited, not measured here",
  "key": {"[1]": {"settings": "forms a charge transfer complex with the pigment"}, "melanoma cells": {"test_system": "melanoma cells", "settings": "diffuses through the cellular membranes"}},
  "data": [
    {"smiles": "CN(C)c1ccc2nc3ccc(N(C)C)cc3[s+]c2c1.[Cl-]", "note": "[Methylene blue, 3,7-bis(dimethylamino)phenothiazine-5-ium chloride]", "values": [
      {"measurement": "affinity to melanin", "setting": "[1]", "value": "very high affinity"},
      {"measurement": "accumulation in melanoma cells", "setting": "melanoma cells", "value": "accumulates selectively"}
    ]}
  ]
}
